{"source": "patent US8324228B2", "about": "“Pyrimidine classical cannabinoid compounds and related methods of use” (priority 2008, dated 2012)", "data": [{"system": "glioblastoma brain cancer cell line LN-229", "assay": "Cytotoxicity assay (CCK8 viability)", "assay_type": "cell-based", "conditions": "Homo sapiens, cytotoxicity against LN-229 cells, 18 hours incubation", "method": "Cytoxocity assay: Cells were seeded on a 96 well polystyrene plate in full serum media at a density of 75,000 cells per milliliter, 100 μL per well. Plates were incubated at 37° C. and 5% CO2 for 24 hours to allow cell attachment. Drug solutions were prepared in DMSO at 100× concentration and mixed 1:100 in 1% FBS media to yield the desired concentration. Drug-media mixtures were vortexed immediately prior to administration to cells. Full serum media was removed and replaced with drug-media mixtures and incubated for 18 hours. 10 μL of Cell Counting Kit 8 (CCK8, Dojindo# CK04-11) was added to each well to colormetrically assess viability. After 2-4 hours of incubation with the CCK8 dye, absorbance was read at 450 nm by a BioTek Synergy 2 plate reader.\nThe cytotoxicity of selected compounds against the glioblastoma brain cancer cell line LN-229 is depicted in Table 1.", "units": {"EC50": "µM"}, "values": [{"molecule": "C[C@@H]1CC[C@H]2[C@@H](C1)c1c(O)nc(C(C)(C)C3CCCCC3)nc1OC2(C)C", "note": "[Compound 6d, (6aS,9R,10aR)-3-(2-Cyclohexylpropan-2-yl)-6,6,9-trimethyl-6a,7,8,9,10,10a-hexahydro-6H-isochromeno[3,4-d]pyrimidin-1-ol]", "EC50": 10.6}, {"molecule": "C[C@@H]1CC[C@H]2[C@@H](C1)c1c(O)nc(C(C)(C)c3cccs3)nc1OC2(C)C", "note": "[Compound 6e, (6aS,9R,10aR)-6,6,9-Trimethyl-3-(2-(thiophen-2-yl)propan-2-yl)-6a,7,8,9,10,10a-hexahydro-6H-isochromeno[3,4-d]pyrimidin-1-ol]", "EC50": 30.1}, {"molecule": "CCCCCCC(C)(C)c1nc(O)c2c(n1)OC(C)(C)[C@H]1CC[C@@H](C)C[C@@H]21", "note": "[Compound 6b, (6aS,9R,10aR)-6,6,9-Trimethyl-3-(2-methyloctan-2-yl)-6a,7,8,9,10,10a-hexahydro-6H-isochromeno[3,4-d]pyrimidin-1-ol]", "EC50": 27.3}]}]}
